The results in this text go back to publication PMC9446148, “Hapten designs based on aldicarb for the development of a colloidal gold immunochromatographic quantitative test strip” (Frontiers in Nutrition, 2022).

The subject of this assay is anti-aldicarb monoclonal antibody. Briefly: icELISA cross-reaction test of the monoclonal antibody. Format: binding, mouse. The note with it: for Cross-reaction rate: IC50 of aldicarb relative to IC50 of inhibitor; for IC50: icELISA, inhibitor against anti-aldicarb monoclonal antibody. From the text:
A mouse monoclonal antibody subtype identification ELISA kit was used to identify the antibody subtype. Indirect competitive ELISA (icELISA) was used to determine the 50% inhibitory mass concentration (IC50) of the monoclonal antibody against aldicarb, and IC50 was used to measure the sensitivity of the monoclonal antibody ([28]). Cross-reaction tests were used to determine specificity, in which aldicarb sulfone, aldicarb sulfoxide, thiofanox, oxamyl, methomyl, metolcarb, isoprocarb, and carbofuran were selected as inhibitors. The IC50 of each inhibitor was determined by icELISA, and the IC50 of the monoclonal antibody against aldicarb and the IC50 of the inhibitor were taken as the cross-reaction rate.
Antibody specificity is the ability of the antibody to bind to a specific antigen in preference over antigen analogs. The cross-reactivity rate is often used as an evaluation standard because an inverse relationship exists between the cross-reactivity rate and the specificity of the antibody. In this study, we selected aldicarb sulfone, aldicarb sulfoxide, thiofanox, oxamyl, methomyl, metolcarb, isoprocarb, and carbofuran, with chemical structures similar to that of aldicarb, for the specificity analysis.

`CNC(=O)O/N=C/C(C)(C)S(C)(=O)=O` [Aldicarb sulfone] showed a Cross-reaction rate of less than 0.978% and an IC50 greater than 0.042 µg/mL. Besides, the Cross-reaction rate (listed as aldicarb sulfone) is recorded as less than 1%.

Regarding `CNC(=O)O/N=C/C(C)(C)[S+](C)[O-]` (stereo not shown) [Aldicarb sulfoxide], the Cross-reaction rate is less than 0.978% and the half-inhibitory concentration (IC50) is greater than 0.042 µg/mL. The compound also came in with a Cross-reaction rate (listed as aldicarb sulfoxide) of less than 1%.

In turn, `CNC(=O)O/N=C/C(C)(C)SC` [Aldicarb, [(E)-(2-methyl-2-methylsulfanylpropylidene)amino]N-methylcarbamate] registered a Cross-reaction rate of 100%.

In turn, `CNC(=O)Oc1cccc2c1OC(C)(C)C2` [Carbofuran] came in with a Cross-reaction rate of less than 0.978% and an IC50 greater than 0.042 µg/mL. The compound also returned a Cross-reaction rate (listed as carbofuran) of less than 1%.

In turn, `CNC(=O)Oc1ccccc1C(C)C` [Isoprocarb] came in with a Cross-reaction rate of less than 0.978% and an IC50 greater than 0.042 µg/mL. The compound further came in with a Cross-reaction rate (listed as isoprocarb) of less than 1%.

In turn, `CNC(=O)ON=C(C)SC` [Methomyl] yielded a Cross-reaction rate of less than 0.978% and an IC50 greater than 0.042 µg/mL. The Cross-reaction rate (listed as methomyl) is less than 1%.

The compound `CNC(=O)Oc1cccc(C)c1` [Metolcarb] yielded a Cross-reaction rate of less than 0.978% and an IC50 greater than 0.042 µg/mL. Also, the Cross-reaction rate (listed as metolcarb) was less than 1%.

For the compound `CNC(=O)O/N=C(\SC)C(=O)N(C)C` [Oxamyl], the Cross-reaction rate is given as less than 0.978% and the IC50 was greater than 0.042 µg/mL. Where the note is “listed as oxamyl”, this compound displayed a Cross-reaction rate of less than 1%.

As for `CNC(=O)ON=C(CSC)C(C)(C)C` [Thiofanox], the Cross-reaction rate is given as less than 0.978% and the IC50 was greater than 0.042 µg/mL. Further, the Cross-reaction rate (listed as thiofanox) is listed as less than 1%.

As usually defined, the IC50 is the midpoint of a concentration-inhibition curve. Lower therefore signals higher potency.
